# According to patent US12071602B2, “Inductively coupled capacitor wireless sensor system for rapid antimicrobial susceptibility testing” (SYRACUSE UNIVERSITY, priority 2021, dated 2024):
# System: E. coli MG1655
# Experiment: LC sensor relative permittivity growth monitoring (AST), ampicillin sensitive strain
# Assay type: cell-based
# Details: 100 μg/mL ampicillin at the time of inoculation, cultured for 4 hours; observed within 30 mins; FIG. 12
smiles,measurement,value
CC1(C)S[C@@H]2[C@H](NC(=O)[C@H](N)c3ccccc3)C(=O)N2[C@H]1C(=O)O [ampicillin],growth in presence of ampicillin (relative permittivity),inhibited
